In US20230293517A1, “ANTAGONIST COMPOUNDS” (AdoRx Therapeutics Limited, priority 2020, published 2023):
pKi: −log10 of the molar value. Where “and” joins values, the source holds several entries; their conditions need not be identical. Equal values may be shown once. Where a name gives a salt, the structure may show the parent alone. Read-outs that look alike come from different tables or passages of the source.

Tests used:
[1] = molecular target: human Adenosine A2b receptor (Homo sapiens (Human), UniProt P29275); test: Adenosine receptor TR-FRET binding assay (A2b)
human Adenosine A2b receptor, sequence (P29275 whole entry): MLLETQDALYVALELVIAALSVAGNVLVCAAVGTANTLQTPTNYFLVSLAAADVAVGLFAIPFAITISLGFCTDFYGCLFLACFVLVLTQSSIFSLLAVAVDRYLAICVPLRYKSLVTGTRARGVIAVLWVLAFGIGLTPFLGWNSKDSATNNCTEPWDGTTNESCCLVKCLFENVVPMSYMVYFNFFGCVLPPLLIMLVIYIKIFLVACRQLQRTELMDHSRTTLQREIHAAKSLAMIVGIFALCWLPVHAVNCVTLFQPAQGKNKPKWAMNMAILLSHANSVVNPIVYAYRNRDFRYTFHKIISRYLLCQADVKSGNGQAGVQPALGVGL
Method: (§1) Biological Example 1—Adenosine Receptor Time-Resolved Fluorescence Resonance Energy Transfer (TRFRET) Binding Assay
(§2) All FRET binding experiments were conducted at room temperature in white 384-well plates, in assay binding buffer containing 1×LabMed (Cisbio, France), 100 μg/mL saponin, 1% DMSO and 0.02% pluronic acid. Binding of the fluorescently labelled Adenosine receptor antagonist XAC (CA200645, FRET acceptor) to terbium-labelled A1, A2a, A2b and A3 adenosine receptors (FRET donors) was detected by time-resolved FRET due to the close proximity of the donor and acceptor in a binding event. To investigate the ability of unlabelled test compounds to bind to Adenosine A1, A2a, A2b and A3 receptors, dose response curves were constructed that determined the ability of a range of concentrations to inhibit the binding of 30 nM CA200645 to the A2b receptor and 100 nM CA200645 to the A1, A2a, and A3 receptor.
(§3) Serial dilution (1:3 dilutions) of test compounds in neat DMSO and transfer of a 400 nL sample of test compound into the assay plate was carried out using the Mosquito (TTP Labtech, UK). The compound samples were incubated for 2 hours at room temperature with a fixed concentration of CA200645 defined for each receptor (see above) and CHO cell membranes containing the human Adenosine A1 (0.5 μg/well), A2a (0.3 μg/well), A2b (1 μg/well) or A3 (1 μg/well) receptor in 40 μL of assay buffer. Total and non-specific binding of CA200645 was determined in the absence and presence of 10 μM XAC, respectively. Following 2 hours incubation, the level of CA200645 binding was detected on a Pherastar FSX (BMG Labtech, Germany) using standard TR-FRET settings. The terbium donor was excited with three laser flashes at a wavelength of 337 nm, and donor and acceptor emission was detected at 620 nm and 665 nm wavelengths, respectively. FRET ratios were obtained by multiplying the acceptor/donor ratio value by 10,000. Specific binding was determined by subtracting the non-specific binding FRET ratio from the total binding FRET ratio. Compound IC50 curves were analysed using GraphPad Prism 7.0 (GraphPad, USA) and Ki affinity values were determined from the obtained IC50 values using the method of Cheng and Prusoff.

[2] = molecular target: human Adenosine A2a receptor (Homo sapiens (Human), UniProt P29274); test: Adenosine receptor TR-FRET binding assay (A2a); conditions: inhibition of binding of 100 nM CA200645, CHO cell membranes
human Adenosine A2a receptor, sequence (P29274 whole entry): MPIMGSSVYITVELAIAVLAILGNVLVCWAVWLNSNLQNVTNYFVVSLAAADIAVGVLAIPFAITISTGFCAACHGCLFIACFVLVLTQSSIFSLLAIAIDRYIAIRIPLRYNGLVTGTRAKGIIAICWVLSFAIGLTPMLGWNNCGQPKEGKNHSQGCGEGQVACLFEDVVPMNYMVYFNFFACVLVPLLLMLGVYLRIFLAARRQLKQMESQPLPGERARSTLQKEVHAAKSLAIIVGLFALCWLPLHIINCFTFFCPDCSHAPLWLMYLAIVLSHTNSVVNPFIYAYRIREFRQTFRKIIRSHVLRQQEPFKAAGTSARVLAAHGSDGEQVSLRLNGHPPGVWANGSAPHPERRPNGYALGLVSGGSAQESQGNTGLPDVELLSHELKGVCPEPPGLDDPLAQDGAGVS
Method: as §1, §2, §3

[3] = molecular target: human Adenosine A1 receptor (Homo sapiens (Human), UniProt P30542); test: Adenosine receptor TR-FRET binding assay (A1); conditions: inhibition of binding of 100 nM CA200645, CHO cell membranes
human Adenosine A1 receptor, sequence (P30542 whole entry): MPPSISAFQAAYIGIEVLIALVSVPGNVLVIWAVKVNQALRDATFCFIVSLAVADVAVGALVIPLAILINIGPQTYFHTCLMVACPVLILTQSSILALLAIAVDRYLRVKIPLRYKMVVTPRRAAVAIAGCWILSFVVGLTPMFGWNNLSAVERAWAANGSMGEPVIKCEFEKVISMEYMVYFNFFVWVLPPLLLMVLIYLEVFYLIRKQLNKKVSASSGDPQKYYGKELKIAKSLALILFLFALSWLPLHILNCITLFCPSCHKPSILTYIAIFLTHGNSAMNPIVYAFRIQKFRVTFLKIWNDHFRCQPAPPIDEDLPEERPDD
Method: as §1, §2, §3

[4] = TR-FRET, inhibition of binding of 30 nM CA200645, CHO cell membranes

| SMILES | pKi [1] | pKi [2] | pKi [3] | pKi [1, 4] | pKi ([3]; formate salt) | pKi ([1]; TR-FRET, inhibition of binding of 30 nM CA200645, CHO cell membranes, formate salt) |
| --- | --- | --- | --- | --- | --- | --- |
| Cc1cc(-c2sc(NC(=O)N3C[C@@H]4NCCO[C@H]4C3)nc2-c2cccc(C#N)c2)cc(C)n1 (racemic) [Example 14.3, rac-(4aS,7aS)—N-[4-(3-Cyanophenyl)-5-(2,6-dimethyl-4-pyridyl)thiazol-2-yl]-3,4,4a,5,7,7a-hexahydro-2H-pyrrolo[3,4-b][1,4]oxazine-6-carboxamide 2,2,2-trifluoroacetic acid salt] | 8.12 | 8.46 |  |  |  |  |
| Cc1cc(-c2sc(NC(=O)N3C[C@@H](C)NC[C@@H]3C)nc2-c2cccc(C#N)c2)cc(C)n1 (relative stereo) [Example 7.11, trans-N-[4-(3-Cyanophenyl)-5-(2,6-dimethyl-4-pyridyl)thiazol-2-yl]-2,5-dimethyl-piperazine-1-carboxamide] |  | 7.89 | 6.96 | 7.10 |  |  |
| Cc1cc(-c2sc(NC(=O)N3CCCC3CC(C)(C)O)nc2-c2cccc(C#N)c2)cc(Cl)n1 (stereo not shown) [Example 3.3] |  | 8.67 | 6.87 | 8.41 |  |  |
| Cc1cc(-c2sc(NC(=O)N3CCN(CC(C)(C)O)CC3)nc2-c2cccc(C#N)c2)cc(C)n1 [Example 4.34, N-[4-(3-Cyanophenyl)-5-(2,6-dimethyl-4-pyridyl)thiazol-2-yl]-4-(2-hydroxy-2-methyl-propyl)piperazine-1-carboxamide] |  | 7.91 | 6.57 | 7.89 |  |  |
| Cc1cc(-c2sc(NC(=O)N3CCC4(CCN4C)C3)nc2-c2cccc(C#N)c2)cc(C)n1 (stereo not shown) [Example 4.36, N-[4-(3-Cyanophenyl)-5-(2,6-dimethyl-4-pyridyl)thiazol-2-yl]-1-methyl-1,7-diazaspiro[3.4]octane-7-carboxamide formate salt] |  | 8.61 | 6.50 | 7.86 |  |  |
| Cc1cc(-c2sc(NC(=O)N3CCN(C(C)(C)CO)CC3)nc2-c2cccc(C#N)c2)cc(C)n1 [Example 4.37, N-[4-(3-Cyanophenyl)-5-(2,6-dimethyl-4-pyridyl)thiazol-2-yl]-4-(2-hydroxy-1,1-dimethyl-ethyl)piperazine-1-carboxamide] |  | 8.37 | 6.26 | 7.57 |  |  |
| Cc1cc(-c2sc(NC(=O)N3CCN4CCC[C@H]4C3)nc2-c2cccc(C#N)c2)cc(C)n1 [Example 4.38, (8aS)-N-[4-(3-Cyanophenyl)-5-(2,6-dimethyl-4-pyridyl)thiazol-2-yl]-3,4,6,7,8,8a-hexahydro-1H-pyrrolo[1,2-a]pyrazine-2-carboxamide formate salt] |  |  |  |  | 6.74 and 7.12 | 8.09 and 8.46 |
| Cc1cc(-c2sc(NC(=O)N3C[C@H]4CC[C@@H](C3)N(C)C4)nc2-c2cccc(C#N)c2)cc(C)n1 [Example 6.5, (1S,5S)-N-[4-(3-Cyanophenyl)-5-(2,6-dimethyl-4-pyridyl)thiazol-2-yl]-6-methyl-3,6-diazabicyclo[3.2.2]nonane-3-carboxamide] |  | 8.33 | 7.03 | 7.64 |  |  |
| Cc1cc(-c2sc(NC(=O)N3CCC(C)(C#N)CC3)nc2-c2cccc(C#N)c2)cc(C2COC2)n1 [Example 6.111, 4-Cyano-N-[4-(3-cyanophenyl)-5-[2-methyl-6-(oxetan-3-yl)-4-pyridyl]thiazol-2-yl]-4-methyl-piperidine-1-carboxamide] |  | 9.70 | 7.74 | 8.19 |  |  |
| Cc1cc(-c2sc(NC(=O)N3CC(N4CCOCC4)C3)nc2-c2cccc(C#N)c2)cc(C)n1 [Example 6.112, N-[4-(3-Cyanophenyl)-5-(2,6-dimethyl-4-pyridyl)thiazol-2-yl]-3-morpholino-azetidine-1-carboxamide] |  | 8.37 | 6.47 | 7.63 |  |  |
| Cc1cc(-c2sc(NC(=O)N3CCN(C4CCOCC4)CC3)nc2-c2cccc(C#N)c2)cc(C)n1 [Example 6.113, N-[4-(3-Cyanophenyl)-5-(2,6-dimethyl-4-pyridyl)thiazol-2-yl]-4-tetrahydropyran-4-yl-piperazine-1-carboxamide diformate salt] |  | 7.97 | 6.44 | 8.08 |  |  |
| Cc1cc(-c2sc(NC(=O)N3CC(N4CCCC4)C3)nc2-c2cccc(C#N)c2)cc(C)n1 [Example 6.114, N-[4-(3-Cyanophenyl)-5-(2,6-dimethyl-4-pyridyl)thiazol-2-yl]-3-pyrrolidin-1-yl-azetidine-1-carboxamide] |  | 8.00 | 6.62 | 7.64 |  |  |
| Cc1cc(-c2sc(NC(=O)N3CC(N(C)C)C3)nc2-c2cccc(C#N)c2)cc(C)n1 [Example 6.115, N-[4-(3-Cyanophenyl)-5-(2,6-dimethyl-4-pyridyl)thiazol-2-yl]-3-(dimethylamino)azetidine-1-carboxamide] |  | 8.10 | 6.75 | 7.54 |  |  |
| Cc1cc(-c2sc(NC(=O)N3CCC(CN4CCOCC4)CC3)nc2-c2cccc(C#N)c2)cc(C)n1 [Example 6.116, N-[4-(3-Cyanophenyl)-5-(2,6-dimethyl-4-pyridyl)thiazol-2-yl]-4-(morpholinomethyl)piperidine-1-carboxamide formate salt] |  | 8.13 | 6.55 | 8.00 |  |  |
| Cc1cc(-c2sc(NC(=O)N3CC4CN(C)CC43)nc2-c2cccc(C#N)c2)cc(C)n1 (stereo not shown) [Example 6.120, N-[4-(3-Cyanophenyl)-5-(2,6-dimethyl-4-pyridyl)thiazol-2-yl]-3-methyl-3,6-diazabicyclo[3.2.0]heptane-6-carboxamide] |  | 7.95 | 6.91 | 7.19 |  |  |
| Cc1cc(-c2sc(NC(=O)N3CCN4CCC3C4)nc2-c2cccc(C#N)c2)cc(C)n1 (stereo not shown) [Example 6.121, N-[4-(3-Cyanophenyl)-5-(2,6-dimethyl-4-pyridyl)thiazol-2-yl]-1,4-diazabicyclo[3.2.1]octane-4-carboxamide] |  | 8.71 | 6.91 | 8.17 |  |  |
| Cc1cc(-c2sc(NC(=O)N3CCC4(CC3)CNCCO4)nc2-c2cccc(C#N)c2)cc(C)n1 [Example 7.3, N-[4-(3-Cyanophenyl)-5-(2,6-dimethyl-4-pyridyl)thiazol-2-yl]-1-oxa-4,9-diazaspiro[5.5]undecane-9-carboxamide] |  | 8.99 | 6.68 | 8.24 |  |  |
| Cc1cc(-c2sc(NC(=O)N3C4CCC3CNC4)nc2-c2cccc(C#N)c2)cc(C)n1 [Example 7.4, N-[4-(3-Cyanophenyl)-5-(2,6-dimethyl-4-pyridyl)thiazol-2-yl]-3,8-diazabicyclo[3.2.1]octane-8-carboxamide] |  | 8.56 | 7.24 | 7.87 |  |  |
| Cc1cc(-c2sc(NC(=O)N3C4CNCC3C4)nc2-c2cccc(C#N)c2)cc(C)n1 [Example 7.5, N-[4-(3-Cyanophenyl)-5-(2,6-dimethyl-4-pyridyl)thiazol-2-yl]-3,6-diazabicyclo[3.1.1]heptane-6-carboxamide] |  | 8.90 | 8.05 | 7.92 |  |  |
| Cc1cc(-c2sc(NC(=O)N3C[C@H]4CC[C@@H]3CN4)nc2-c2cccc(C#N)c2)cc(C)n1 [Example 7.6, (1R,4R)—N-[4-(3-Cyanophenyl)-5-(2,6-dimethyl-4-pyridyl)thiazol-2-yl]-2,5-diazabicyclo[2.2.2]octane-2-carboxamide] |  | 8.39 | 6.79 | 7.65 |  |  |
